Test results published in the supplement of paper PMC10307832.

How the values were obtained:
Assay in all cases: relative viability (nuclei count vs DMSO), 5 days (fraction); higher = more cells survive
[1] = compound: CC1=CC(=C(N1C2=CC=C(C=C2)Cl)C)C(=O)CN3CCCCC3 [IU1-47] + O=C(CCCCCCC(=O)Nc1ccccc1)NO [Vorinostat] (partner 1 µM)
How it was run: (§1)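 Values are medians from duplicate plates. Each reflects relative viability, defined as the nuclei count of treated wells over that of vehicle wells. Lung cancer cell lines in 1536-well plates were pin-tool dosed one day after seeding with one drug alone or with a fixed anchor-drug dose plus five library-drug doses (not always all listed) in √10 steps, then fixed, stained and imaged at 4× after 5 days.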

[2] = compound: Cc1nc(C(=O)NCC(=O)O)c(O)c2ccc(Oc3ccccc3)cc12 [FG-4592] + Cc1nc(Nc2ncc(C(=O)Nc3c(C)cccc3Cl)s2)cc(N2CCN(CCO)CC2)n1 [Dasatinib] (partner 0.075 µM)
How it was run: as §1

[3] = compound: Cc1nc(C(=O)NCC(=O)O)c(O)c2ccc(Oc3ccccc3)cc12 [FG-4592] + Nc1ncn([C@H]2C[C@H](O)[C@@H](CO)O2)c(=O)n1 [Decitabine] (partner 2 µM)
How it was run: as §1

[4] = compound: Cc1nc(C(=O)NCC(=O)O)c(O)c2ccc(Oc3ccccc3)cc12 [FG-4592] + O=C(CCCCCCC(=O)Nc1ccccc1)NO [Vorinostat] (partner 1 µM)
How it was run: as §1

Cell Line | relative viability ([1]; first compound 0.08 µM) | relative viability ([1]; first compound 0.253 µM) | relative viability ([1]; first compound 0.8 µM) | relative viability ([1]; first compound 8 µM) | relative viability ([2]; first compound 0.08 µM) | relative viability ([2]; first compound 0.253 µM) | relative viability ([2]; first compound 0.8 µM) | relative viability ([2]; first compound 2.53 µM) | relative viability ([2]; first compound 8 µM) | relative viability ([3]; first compound 0.08 µM) | relative viability ([3]; first compound 0.253 µM) | relative viability ([3]; first compound 2.53 µM) | relative viability ([3]; first compound 8 µM) | relative viability ([4]; first compound 0.08 µM) | relative viability ([4]; first compound 0.253 µM) | relative viability ([4]; first compound 2.53 µM) | relative viability ([4]; first compound 8 µM) | relative viability ([1]; first compound 2.53 µM) | relative viability ([3]; first compound 0.8 µM) | relative viability ([4]; first compound 0.8 µM)
LCLC-97TM1 | 0.919 | 0.869 | 0.82 | 0.571 | 0.873 | 0.734 | 0.907 | 0.928 | 1.03 | 0.218 | 0.209 | 0.217 | 0.173 | 0.63 | 0.737 | 0.328 | 0.671 | – | – | –
EPLC-272H | 0.382 | 0.55 | 0.494 | 0.461 | 0.389 | 0.302 | 0.251 | 0.412 | 0.334 | 0.417 | 0.302 | 0.368 | 0.382 | 0.41 | 0.487 | 0.559 | 0.472 | 0.394 | 0.304 | 0.41
NCI-H522 | 0.95 | 0.903 | 0.884 | 0.851 | 0.887 | 0.892 | 0.801 | 0.843 | 0.829 | 0.706 | 0.514 | 0.65 | 0.74 | 0.962 | 0.794 | 0.724 | 0.89 | 0.695 | – | –
NCI-H1915 | 0.541 | 0.572 | 0.533 | 0.509 | 0.324 | 0.283 | 0.286 | 0.31 | 0.257 | 0.271 | 0.28 | 0.255 | 0.252 | 0.452 | 0.489 | 0.442 | 0.468 | 0.371 | 0.284 | 0.469
NCI-H2405 | 1.06 | 1.08 | 1.14 | 1.01 | 0.218 | – | 0.231 | 0.184 | 0.204 | 0.69 | 0.714 | 0.688 | 0.671 | 0.767 | 0.906 | 0.942 | 0.961 | 0.925 | 0.702 | 0.92
NCI-H322M | 0.935 | 0.968 | 0.907 | 0.885 | 0.248 | 0.249 | 0.219 | 0.245 | 0.224 | – | 0.658 | 0.638 | 0.725 | – | 0.823 | 0.898 | 0.822 | 0.894 | 0.714 | 0.772
NCI-H2170 | 0.997 | 0.973 | 0.921 | 0.747 | 0.592 | 0.478 | 0.412 | 0.59 | 0.497 | 0.445 | 0.479 | 0.506 | 0.356 | 0.825 | 0.747 | 0.785 | 0.608 | 0.748 | 0.447 | 0.627
SW 900 | 0.361 | – | 0.616 | 0.428 | 0.889 | 0.57 | 0.444 | 0.55 | 0.461 | – | 0.47 | 0.465 | 0.349 | – | 0.388 | 0.548 | 0.469 | 0.603 | – | –
NCI-H1395 | 0.676 | 0.798 | 0.611 | 0.605 | 0.446 | 0.416 | 0.373 | 0.364 | 0.365 | 0.766 | 0.677 | 0.686 | 0.614 | 0.729 | 0.771 | 0.675 | 0.623 | 0.517 | 0.75 | 0.493
NCI-H358 | 0.828 | 0.708 | 0.72 | 0.619 | 0.16 | 0.19 | 0.162 | 0.145 | 0.156 | 0.213 | 0.194 | 0.192 | 0.202 | 0.61 | 0.567 | 0.88 | 0.716 | 0.781 | 0.288 | 0.745
NCI-H838 | 0.768 | 0.746 | 0.834 | 0.64 | 0.271 | 0.262 | 0.226 | 0.27 | 0.207 | 0.456 | 0.439 | 0.459 | 0.443 | 0.742 | 0.729 | 0.839 | 0.705 | 0.689 | 0.446 | 0.696
